Each structure is given as a SMILES string. “And” between values parts separate entries of the source, which are not always exact repeats. Identical values can stand only once.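 Grown in 96-well plates, cells were treated for 48 hours with each compound at five concentrations. Insufficient inhibition: endpoint recorded as highest concentration tested. The concentration for 50% growth inhibition is given as GI50. The concentration for full growth arrest is given as TGI.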 A value given as a limit tells only on which side of the number the result lay.

Common to all, as to assay: growth of human tumour cells (NCI), 48 h
In assay [1] the test system is UACC-257 melanoma.
Assay [2] relates to CCRF-CEM leukemia.
Assay [3] relates to RPMI-8226 leukemia.
Assay [4] has as its system OVCAR-3 ovarian.
The subject of assay [5] is HS 578T breast.
The test system of assay [6] is A498 renal.
The subject of assay [7] is NCI/ADR-RES ovarian.
Assay [8] concerns PC-3 prostate.
The test system of assay [9] is HT29 colon.
Assay [10] relates to OVCAR-5 ovarian.

Take `COc1ccc(Cn2cc3c(c2)-c2oncc2CC3)cc1OC`: the GI50 in assay [1] is 1690 nM; in assay [2], 0.132 µM; in assay [3] it was 0.19 µM; in assay [4], 0.134 µM; in assay [5], 0.132 µM; in assay [6], 0.102 µM. The GI50 in [7] was 0.132 µM; in assay [8], 0.395 µM; in assay [9], 153 nM; in assay [10], 0.339 µM. The TGI in [1] was 22.3 µM; in assay [4], 0.35 µM; in assay [5] it was 0.447 µM; in [6] it was 0.678 µM; in [7] it was 1.38 µM; in assay [8], over 50 µM. Moreover, the TGI was 1.28 µM in [9] and over 41.9 µM in assay [10].

For the molecule `COc1c(O)cc2c(c1O)C(=O)C1=C(CCCC1)C2=O`, the TGI is 81.2 µM in assay [1]; 10.9 µM in [2]; 32.6 µM in assay [3]; over 100 µM in assay [4]; 97.1 µM in assay [5]; 47.7 µM in assay [6]. Further, the TGI in assay [7] was 51.5 µM; in assay [8], 84.5 µM; in [9] it was 40 µM; in [10], over 100 µM.

Consider `CCOC(=O)c1c(NC(=O)c2ccccc2)sc2c3c(ccc12)OCN(C)C3`, for which the GI50 was 1970 nM in assay [1]; 1.97 µM in assay [2]; 1.69 µM in assay [3]; 1.79 µM in assay [4]; 1.9 µM in assay [5]; 1.65 µM in assay [6]. In addition, the GI50 in assay [7] is 1.59 µM; in [8] it was 1.53 µM; in [9] it was 2000 nM; in [10], 1.71 µM. The TGI in [1] was 3.85 µM; in [2], 5.75 µM; in assay [3], 3.87 µM; in [4], 3.26 µM; in [5], 4.16 µM; in assay [6] it was 3.21 µM. Moreover, the TGI in assay [7] was 3.32 µM; in assay [8], 3 µM; in assay [9], 4.25 µM; in [10], 3.16 µM.

With `Cc1nc(-c2cnc(NC(C)C)n(C)c2=O)ccc1Oc1ccnc(-c2cnn(C)c2)c1`, the GI50 in assay [1] was 12000 nM; in assay [2] it was 12.1 µM; in assay [3], 8.49 µM; in assay [4], 16.1 µM; in assay [5] it was 12.2 µM; in [6], 4.8 µM. The GI50 in assay [7] is 8.35 µM; in assay [8] it was 16.5 µM; in assay [9], 5280 nM; in assay [10] it was 19.4 µM. Besides, the TGI in [1] was 55.1 µM; in assay [2] it was over 100 µM; in assay [3], 81.7 µM; in assay [4], over 100 µM; in assay [5], 67.6 µM; in [6], 38.6 µM. In addition, the TGI is over 100 µM in assay [7], over 100 µM in assay [8], 68 µM in [9] and over 100 µM in assay [10].

In the case of `CCN(CC)c1ccc(C2NC(=O)c3ccccc3N2)cc1` (stereo not given), the TGI in [1] was over 100 µM; in assay [2] it was 3.38 µM; in assay [3] it was over 100 µM; in assay [4], over 100 µM; in [5], over 30 µM; in assay [6], over 31.6 µM. Besides, the TGI in assay [7] is over 100 µM; in assay [8], over 100 µM; in assay [9], over 20.8 µM; in assay [10] it was over 100 µM.

Turning to `Nc1cc(C(F)(F)F)c(-c2cc(N3CCOCC3)nc(N3CCOCC3)n2)cn1`, the GI50 in assay [1] was 590 nM and 417 nM; in assay [2], 1.56 µM and 1.49 µM; in assay [3], 1.31 µM and 1.47 µM; in assay [4] it was 0.919 µM and 1.03 µM; in assay [5], 0.313 µM and 0.522 µM; in assay [6], 0.189 µM and 0.205 µM. Besides, the GI50 in assay [7] was 0.753 µM and 0.856 µM; in [8], 0.44 µM and 0.49 µM; in assay [9] it was 547 nM and 531 nM; in [10], 0.692 µM and 0.848 µM. The TGI in assay [1] was > 7.31 µM and 4.25 µM; in assay [2] it was over 100 µM; in assay [3], over 23.1 µM; in [4] it was 4.71 µM and 4.45 µM; in assay [5] it was 1.55 µM and 5.2 µM; in assay [6], 0.713 µM and 1.09 µM. Moreover, the TGI in assay [7] is 3.45 µM and > 21.5 µM; in assay [8] it was > 9.49 µM and 6.09 µM; in assay [9], > 7.41 µM and 3.66 µM; in [10], 7.16 µM and 8.7 µM.

Regarding `COC1=C(OC)C(=O)C(Sc2ccc3ccccc3c2)=CC1=O`, the TGI in assay [1] turned out to be 22.2 µM; in assay [2], 4.31 µM; in assay [3], 5.78 µM; in [4] it was 32.7 µM; in [5] it was 53.4 µM; in [6], 29.6 µM. The TGI in assay [7] is 69.6 µM; in assay [8], 26.1 µM; in assay [9], 37.8 µM; in assay [10] it was 37.2 µM.

As to `COc1ccc2nc3cc([N+](=O)[O-])ccc3c(NNc3ccccc3)c2c1`, the GI50 in [1] is 17300 nM; in [2], 10.9 µM; in assay [3], 4.8 µM; in [4], 10.2 µM; in assay [7], 12.8 µM; in assay [8], 10.4 µM. Further, the GI50 in assay [10] is 14.9 µM. The TGI in assay [1] was 51.5 µM and > 100 µM; in assay [2] it was over 100 µM; in assay [3], 46.7 µM and > 73.3 µM; in [4], 21.9 µM and > 100 µM; in assay [5], over 100 µM; in assay [6], 13.2 µM. For the same molecule, the TGI in assay [7] is 55.1 µM and > 100 µM; in assay [8], 40.4 µM and > 100 µM; in assay [9], 29.9 µM and 39.2 µM; in assay [10], 47.2 µM and > 100 µM.

As to `COc1cc(/C=C/C(=O)N2CCC=CC2=O)cc(OC)c1OC`, the GI50 is 2230 nM in [1]; 2.12 µM in [2]; 1.5 µM in [3]; 3.34 µM in assay [4]; 5.36 µM in [5]; 14.9 µM in assay [6]. Besides, the GI50 in assay [7] was 3.41 µM; in assay [8] it was 7.36 µM; in [9] it was 2980 nM; in [10], 2.77 µM. In addition, the TGI in assay [1] was 5.37 µM; in assay [2] it was 6.29 µM; in assay [3] it was 4.81 µM; in [4], 11.9 µM; in assay [5], 43.6 µM; in assay [6], 29.4 µM. In addition, the TGI in assay [7] came out at 47.9 µM; in assay [8], 28.5 µM; in assay [9] it was 9.08 µM; in [10], 8.68 µM.

In the case of `O=C(/C=C/C(Cl)(Cl)Cl)Nc1ccc(Cl)cc1`, the TGI in assay [1] is 35.7 µM; in [2] it was 3.97 µM; in assay [3] it was 3.85 µM; in [4], 17.3 µM; in assay [5], 54.3 µM; in assay [6], 28.8 µM. For the same molecule, the TGI in assay [7] turned out to be 14 µM; in assay [8], 26.5 µM; in assay [9], 4.03 µM; in assay [10], 27.5 µM.

In the case of `NC(Cc1c[nH]c2ccc(F)cc12)C(=O)O` (stereo not given), the GI50 in assay [1] is 475000 nM; in assay [2], 1090 µM; in assay [3], 1240 µM; in assay [4], 724 µM; in assay [5], 506 µM; in assay [6] it was 580 µM. Besides, the GI50 in assay [7] was 675 µM; in assay [8], 780 µM; in assay [9] it was 911000 nM; in assay [10], 814 µM. Moreover, the TGI in [1] is 1220 µM; in [2], over 2500 µM; in assay [3], over 2500 µM; in assay [4], over 2500 µM; in [5], 1590 µM; in [6], 1630 µM. The TGI in assay [7], in assay [8], in assay [9] and in assay [10] was over 2500 µM in each case.

Consider `C[C@@H](NC(=O)c1ncnc(N)c1Cl)c1ncc(C(=O)Nc2cc(C(F)(F)F)c(Cl)cn2)s1`, for which the GI50 in assay [1] was 478 nM; in assay [2], 25.4 µM; in [3] it was 15.2 µM; in [4] it was 24.6 µM; in assay [5] it was 23.4 µM; in [6] it was 7.94 µM. Besides, the GI50 in [7] was 24.5 µM; in [8] it was 25.3 µM; in [9], 1070 nM; in assay [10] it was 5.88 µM. Also, the TGI is 4.77 µM in [1]; over 100 µM in [2]; 49 µM in assay [3]; 70 µM in assay [4]; 98.9 µM in assay [5]; 24.7 µM in assay [6]. Also, the TGI in [7] was 82.5 µM; in assay [8], over 76.6 µM; in assay [9], 46.2 µM; in assay [10] it was over 90.5 µM.

For `C/C(=N/O)c1ccc2c(c1)/C(=N/O)c1ccccc1-2`, the GI50 was 29400 nM in [1]; 25.4 µM in assay [2]; 22.5 µM in [3]; 25.5 µM in assay [4]; 29.4 µM in assay [5]; 34.9 µM in [6]. Besides, the GI50 was 21 µM in [7], 24.2 µM in [8], 18200 nM in [9] and 22.8 µM in assay [10]. Besides, the TGI in assay [1] was 65.5 µM; in [2], 62.6 µM; in [3], 48.8 µM; in [4], 57.7 µM; in assay [5], 99.2 µM; in assay [6], over 100 µM. In addition, the TGI is 48.6 µM in [7], 57.4 µM in [8], 40.7 µM in assay [9] and 53.5 µM in [10].

For the origin of these results see PubChem BioAssay (NCI).
